Series [1] in a line: relative thermodynamic stability of crystalline forms. It counts as physicochemical. How it is done:
The novel crystalline forms of Compound A or a salt thereof, especially the hemihydrates described herein, can be provided stably and constantly from the standpoint of the manufacturing process, and are useful in the treatment of cancer. […] The relative stability of the hemihydrates and monohydrate Form G at relative humidity higher than 93% has been difficult to establish, because the solubility of the three crystalline forms are very close (difference <1 mg/mL) and the conversion is very slow.

Series [2] concerns the target Weel kinase (Homo sapiens, UniProt P30291). The following applies: cited from earlier work.

Sequence of Weel kinase (P30291 whole entry): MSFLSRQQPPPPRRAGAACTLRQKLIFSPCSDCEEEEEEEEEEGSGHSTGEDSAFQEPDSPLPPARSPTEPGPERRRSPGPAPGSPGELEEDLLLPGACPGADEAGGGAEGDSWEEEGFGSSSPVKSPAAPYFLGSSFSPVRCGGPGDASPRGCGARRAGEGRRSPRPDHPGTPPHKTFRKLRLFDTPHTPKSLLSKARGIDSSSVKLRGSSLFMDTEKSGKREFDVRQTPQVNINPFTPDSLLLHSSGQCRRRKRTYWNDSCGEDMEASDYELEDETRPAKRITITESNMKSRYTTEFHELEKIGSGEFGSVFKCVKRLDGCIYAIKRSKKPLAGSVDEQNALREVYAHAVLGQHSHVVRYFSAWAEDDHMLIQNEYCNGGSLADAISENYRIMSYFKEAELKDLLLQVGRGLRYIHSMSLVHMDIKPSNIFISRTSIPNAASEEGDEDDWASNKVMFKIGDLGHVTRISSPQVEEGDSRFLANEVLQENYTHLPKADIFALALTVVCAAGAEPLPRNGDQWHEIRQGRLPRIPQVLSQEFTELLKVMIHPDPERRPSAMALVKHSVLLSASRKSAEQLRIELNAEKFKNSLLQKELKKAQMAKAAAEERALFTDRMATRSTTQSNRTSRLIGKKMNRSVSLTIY

Take `C=CCn1c(=O)c2cnc(Nc3ccc(N4CCN(C)CC4)cc3)nc2n1-c1cccc(C(C)(C)O)n1` [crystalline hemihydrate form II, 2-allyl-1-[6-(1-hydroxy-1-methylethyl)pyridin-2-yl]-6-{[4-(4-methylpiperazin-1-yl)phenyl]amino}-1,2-dihydro-3H-pyrazolo[3,4-d]pyrimidin-3-one]: the “thermodynamic stability relative to other known forms” value in series [1] (temperatures equal or higher than 48° C. and relative humidity range of 19-93%) is “more stable thermodynamically than other known forms”. On to `C=CCn1c(=O)c2cnc(Nc3ccc(N4CCN(C)CC4)cc3)nc2n1-c1cccc(C(C)(C)O)n1` [Compound A, 2-allyl-1-[6-(1-hydroxy-1-methylethyl)pyridin-2-yl]-6-{[4-(4-methylpiperazin-1-yl)phenyl]amino}-1,2-dihydro-3H-pyrazolo[3,4-d]pyrimidin-3-one], for which the “Weel kinase inhibitory effect” value in series [2] is given as “excellent Weel kinase inhibitory effect”. As to `C=CCn1c(=O)c2cnc(Nc3ccc(N4CCN(C)CC4)cc3)nc2n1-c1cccc(C(C)(C)O)n1` [crystalline hemihydrate form I, 2-allyl-1-[6-(1-hydroxy-1-methylethyl)pyridin-2-yl]-6-{[4-(4-methylpiperazin-1-yl)phenyl]amino}-1,2-dihydro-3H-pyrazolo[3,4-d]pyrimidin-3-one], the “thermodynamic stability relative to other known forms” value in series [1] (temperatures up to 44° C. and relative humidity range of 14-93%) is recorded as “more stable thermodynamically than other known forms”.

(Values after patent US8703779B2, “Preparation of crystalline forms of dihydropyrazolopyrimidinone” (Merck Sharp & Dohme Corp., priority 2009, dated 2014).)
